US9439845B2, “Glycyrrhetinimidyl hydroxyproline alkyl esters and protected derivatives thereof” (REVLON CONSUMER PRODUCTS CORPORATION, priority 2013, dated 2016)

Assays:
Format in all cases: cell-based
[1] = tested on: collagen I in normal human dermal fibroblasts (NHDF); experiment: Total Collagen I expression in fibroblasts (immunofluorescence, INCell Analyzer 1000); conditions: for % Control (total Collagen I) / % Stimulation (total Collagen I) / Mean Collagen I (AU): 72 hours; for Mean Collagen I (AU): AU = fluorescence intensity/number of cells
Method: (§1) It is believed that the glycyrrhetinimidyl hydroxyproline alkyl esters of the present invention are useful for promoting collagen production in human skin. In an exemplary test, normal human dermal fibroblasts (NHDF) were cultured in culture medium for 24 hours. The medium was then replaced with culture medium containing or not (control) the test compound or the reference compound (Vitamin C) or the reference mix (Vitamin C and TGF-β). The cells were then incubated for 72 hours. After incubation, the culture medium was then collected and the cells were washed and fixed. Cells were then labeled with a primary antibody (anti-collagen I or anti-collagen III). […] An INCell Analyzer 1000 was used to take images of each well. The labeling was quantified by the measurement of the fluorescence intensity or fluorescence area normalized to the total number of cells.

[2] = tested on: collagen III in normal human dermal fibroblasts (NHDF); experiment: Total Collagen III expression in fibroblasts (immunofluorescence, INCell Analyzer 1000); conditions: for % Control (total Collagen III) / % Stimulation (total Collagen III) / Mean Collagen III (AU): 72 hours
Method: as §1

[3] = tested on: extracellular collagen I in normal human dermal fibroblasts (NHDF); experiment: Extracellular Collagen I expression in fibroblasts (fiber deposition); conditions: for % Control (extracellular Collagen I) / % Stimulation (extracellular Collagen I) / Mean Collagen I (fibers): 72 hours
Method: as §1
(§2) A collagen release promoter, such as Vitamin C, could be used to release the intracellular collagen into the extracellular matrix. Note that in Tables 3 and 4 below, the apparent inhibition of glycyrrhetinimidyl hydroxyproline methyl ester on extracellular collagen fiber deposition is due to an artifact effect.

[4] = tested on: extracellular collagen III in normal human dermal fibroblasts (NHDF); experiment: Extracellular Collagen III expression in fibroblasts (fiber deposition); conditions: for % Control (extracellular Collagen III) / % Stimulation (extracellular Collagen III) / Mean Collagen III (fibers): 72 hours
Method: as §1, §2

[5] = 10 μM, apparent inhibition said to be an artifact
[6] = 30 μM, apparent inhibition said to be an artifact
[7] = qualitative analysis of the images

glycyrrhetinimidyl hydroxyproline methyl ester
% Control (total Collagen I) ([1]; 3.3 μM): 102% | % Stimulation (total Collagen I) ([1]; 3.3 μM): 2% | Mean Collagen I (AU) ([1]; 3.3 μM): 222721 AU | % Control (total Collagen I) ([1]; 10 μM): 97% | % Stimulation (total Collagen I) ([1]; 10 μM): −3% | Mean Collagen I (AU) ([1]; 10 μM): 210888 AU | % Control (total Collagen I) ([1]; 30 μM): 126% | % Stimulation (total Collagen I) ([1]; 30 μM): 26% | Mean Collagen I (AU) ([1]; 30 μM): 274297 AU | increase of the NHDF's neosynthesis of collagen I ([1]; maximum over tested concentrations (text summary of Table 1)): up to 26% | % Control (total Collagen III) ([2]; 3.3 μM): 105% | % Stimulation (total Collagen III) ([2]; 3.3 μM): 5% | Mean Collagen III (AU) ([2]; 3.3 μM): 177399 AU | % Control (total Collagen III) ([2]; 10 μM): 118% | % Stimulation (total Collagen III) ([2]; 10 μM): 18% | Mean Collagen III (AU) ([2]; 10 μM): 199984 AU | % Control (total Collagen III) ([2]; 30 μM): 142% | % Stimulation (total Collagen III) ([2]; 30 μM): 42% | Mean Collagen III (AU) ([2]; 30 μM): 240374 AU | increase of the NHDF's neosynthesis of collagen III ([2]; maximum over tested concentrations (text summary of Table 2)): up to 42% | % Control (extracellular Collagen I) ([3]; 3.3 μM): 102% | % Stimulation (extracellular Collagen I) ([3]; 3.3 μM): 2% | Mean Collagen I (fibers) ([3]; 3.3 μM): 63 fibers | % Control (extracellular Collagen I) [3, 5]: 79% | % Stimulation (extracellular Collagen I) [3, 5]: −21% | Mean Collagen I (fibers) [3, 5]: 48 fibers | % Control (extracellular Collagen I) [3, 6]: 70% | % Stimulation (extracellular Collagen I) [3, 6]: −30% | Mean Collagen I (fibers) [3, 6]: 43 fibers | effect on collagen I extracellular fiber deposition [3, 7]: no significant effect | extracellular release of collagen I ([3]; summary of Table 3): no significant increase | % Control (extracellular Collagen III) ([4]; 3.3 μM): 105% | % Stimulation (extracellular Collagen III) ([4]; 3.3 μM): 5% | Mean Collagen III (fibers) ([4]; 3.3 μM): 34 fibers | % Control (extracellular Collagen III) ([4]; 10 μM): 107% | % Stimulation (extracellular Collagen III) ([4]; 10 μM): 7% | Mean Collagen III (fibers) ([4]; 10 μM): 34 fibers | % Control (extracellular Collagen III) [4, 6]: 78% | % Stimulation (extracellular Collagen III) [4, 6]: −22% | Mean Collagen III (fibers) [4, 6]: 25 fibers | effect on collagen III extracellular fiber deposition [4, 7]: no significant effect | extracellular release of collagen III ([4]; text summary of Table 4): no significant increase
